According to US7081468B2, “Ortho-substituted anthranilic acid amides and their use as medicaments” (Schering AG, priority 2000, dated 2006):

How the values were obtained:
KDR kinase = KDR kinase (Homo sapiens, UniProt P35968); assay: Inhibition of the KDR kinase activity (33P-ATP, poly-(Glu4Tyr) filter assay); format: biochemical; settings: 10 minutes at room temperature
Method: Solutions Required for the Tests
• Stock solution A: 3 mmol of ATP in water, pH 7.0 (−70° C.) • Stock solution B: g-33P-ATP 1 mCi/100 μl • Stock solution C: poly-(Glu4Tyr) 10 mg/ml in water Solution for Dilutions • Substrate solvent: 10 mmol of DTT, 10 mmol of manganese chloride, 100 mmol of magnesium chloride • Enzyme solution: 120 mmol of tris/HCl, pH 7.5, 10 μM of sodium vanadium oxide Sample Application 1 Inhibition of the KDR Kinase Activity in the Presence of the Compounds According to the Invention
In a microtiter plate (without protein binding) that tapers to a point, 10 μl of substrate mix (10 μl of volume of ATP stock solution A+25 μCi of g-33P-ATP (about 2.5 μl of stock solution B)+30 μl of poly-(Glu4Tyr) stock solution C+1.21 ml of substrate solvent), 10 μl of inhibitor solution (substances corresponding to the dilutions, 3% DMSO in substrate solvent as a control) and 10 μl of enzyme solution (11.25 μg of enzyme stock solution (KDR or FLT-1 kinase) are added at 4° C. in 1.25 ml of enzyme solution (dilute). It is thoroughly mixed and incubated for 10 minutes at room temperature. Then, 10 μl of stop solution (250 mmol of EDTA, pH 7.0) is added, mixed, and 10 μl of the solution is transferred to a P 81 phosphocellulose filter. Then, it is washed several times in 0.1 M phosphoric acid. The filter paper is dried, coated with Meltilex and measured in a microbeta counter.
The IC50 values are determined from the inhibitor concentration that is necessary to inhibit the phosphate incorporation to 50% of the uninhibited incorporation after removal of the blank reading (EDTA-stopped reaction).

C-Kit = C-Kit (Homo sapiens, UniProt P10721); assay: C-Kit-isolated kinase-inhibition test; format: biochemical; settings: 10 minutes incubation
C-Kit, sequence (P10721 26-976): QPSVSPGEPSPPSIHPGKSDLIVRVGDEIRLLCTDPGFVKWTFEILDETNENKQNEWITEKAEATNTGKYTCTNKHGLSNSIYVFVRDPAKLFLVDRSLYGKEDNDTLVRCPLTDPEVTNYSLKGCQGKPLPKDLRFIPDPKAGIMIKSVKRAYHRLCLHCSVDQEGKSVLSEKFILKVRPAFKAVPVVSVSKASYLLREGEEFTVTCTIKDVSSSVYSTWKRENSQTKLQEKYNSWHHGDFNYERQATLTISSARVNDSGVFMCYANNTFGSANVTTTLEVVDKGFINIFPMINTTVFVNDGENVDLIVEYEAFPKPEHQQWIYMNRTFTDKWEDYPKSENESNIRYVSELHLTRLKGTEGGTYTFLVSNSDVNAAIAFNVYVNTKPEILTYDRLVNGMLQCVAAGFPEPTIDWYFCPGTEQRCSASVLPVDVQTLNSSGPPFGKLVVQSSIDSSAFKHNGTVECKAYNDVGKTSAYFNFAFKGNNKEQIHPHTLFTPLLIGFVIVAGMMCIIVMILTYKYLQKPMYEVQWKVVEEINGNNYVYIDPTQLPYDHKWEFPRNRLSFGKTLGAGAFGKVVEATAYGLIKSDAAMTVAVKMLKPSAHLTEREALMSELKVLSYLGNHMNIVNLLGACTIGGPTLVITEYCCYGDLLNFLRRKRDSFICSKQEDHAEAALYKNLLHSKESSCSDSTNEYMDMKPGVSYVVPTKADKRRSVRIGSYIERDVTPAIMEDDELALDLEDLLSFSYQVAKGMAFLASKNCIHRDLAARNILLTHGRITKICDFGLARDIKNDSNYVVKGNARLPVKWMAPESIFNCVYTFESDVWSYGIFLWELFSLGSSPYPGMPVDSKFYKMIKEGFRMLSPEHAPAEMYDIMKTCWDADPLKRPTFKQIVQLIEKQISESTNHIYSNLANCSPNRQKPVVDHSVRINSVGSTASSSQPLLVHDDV
Method: C-Kit-Isolated Kinase-Inhibition Test
Assay Solutions Substrate Solutions for 125 Assays:
10 μl of ATP (37.5 μM), 25 μCi of γ33P-ATP (˜+2.5 μl of Amersham redivue solution) and 10 μl of poly-(glu,tyr) are mixed with 1.23 ml of solvent (1×).
The compounds are brought to the desired concentration in the solvent (1×).
The corresponding enzymatic preparation is brought to the necessary concentration with the solvent (1×) to obtain 1.24 ml. Then, 12.5 μl of sodium vanadate solution is added.
The components are added in the following sequence to a microtiter plate with round or stippled floors:
10 μl of the inhibitor in 3× final concentration,
10 μl of substrate mixture,
said components are mixed, and the reaction is started by adding:
10 μl of enzyme preparation.
The batch is incubated for 10 minutes and then brought to a halt by adding 10 μl of stop solution. 10 μl of the thus treated batch is added to the phosphocellulose filter, rewashed in phosphoric acid, then dried and then melted in a meltilex scintillator and measured.

KDR kinase, sequence (P35968 20-1356): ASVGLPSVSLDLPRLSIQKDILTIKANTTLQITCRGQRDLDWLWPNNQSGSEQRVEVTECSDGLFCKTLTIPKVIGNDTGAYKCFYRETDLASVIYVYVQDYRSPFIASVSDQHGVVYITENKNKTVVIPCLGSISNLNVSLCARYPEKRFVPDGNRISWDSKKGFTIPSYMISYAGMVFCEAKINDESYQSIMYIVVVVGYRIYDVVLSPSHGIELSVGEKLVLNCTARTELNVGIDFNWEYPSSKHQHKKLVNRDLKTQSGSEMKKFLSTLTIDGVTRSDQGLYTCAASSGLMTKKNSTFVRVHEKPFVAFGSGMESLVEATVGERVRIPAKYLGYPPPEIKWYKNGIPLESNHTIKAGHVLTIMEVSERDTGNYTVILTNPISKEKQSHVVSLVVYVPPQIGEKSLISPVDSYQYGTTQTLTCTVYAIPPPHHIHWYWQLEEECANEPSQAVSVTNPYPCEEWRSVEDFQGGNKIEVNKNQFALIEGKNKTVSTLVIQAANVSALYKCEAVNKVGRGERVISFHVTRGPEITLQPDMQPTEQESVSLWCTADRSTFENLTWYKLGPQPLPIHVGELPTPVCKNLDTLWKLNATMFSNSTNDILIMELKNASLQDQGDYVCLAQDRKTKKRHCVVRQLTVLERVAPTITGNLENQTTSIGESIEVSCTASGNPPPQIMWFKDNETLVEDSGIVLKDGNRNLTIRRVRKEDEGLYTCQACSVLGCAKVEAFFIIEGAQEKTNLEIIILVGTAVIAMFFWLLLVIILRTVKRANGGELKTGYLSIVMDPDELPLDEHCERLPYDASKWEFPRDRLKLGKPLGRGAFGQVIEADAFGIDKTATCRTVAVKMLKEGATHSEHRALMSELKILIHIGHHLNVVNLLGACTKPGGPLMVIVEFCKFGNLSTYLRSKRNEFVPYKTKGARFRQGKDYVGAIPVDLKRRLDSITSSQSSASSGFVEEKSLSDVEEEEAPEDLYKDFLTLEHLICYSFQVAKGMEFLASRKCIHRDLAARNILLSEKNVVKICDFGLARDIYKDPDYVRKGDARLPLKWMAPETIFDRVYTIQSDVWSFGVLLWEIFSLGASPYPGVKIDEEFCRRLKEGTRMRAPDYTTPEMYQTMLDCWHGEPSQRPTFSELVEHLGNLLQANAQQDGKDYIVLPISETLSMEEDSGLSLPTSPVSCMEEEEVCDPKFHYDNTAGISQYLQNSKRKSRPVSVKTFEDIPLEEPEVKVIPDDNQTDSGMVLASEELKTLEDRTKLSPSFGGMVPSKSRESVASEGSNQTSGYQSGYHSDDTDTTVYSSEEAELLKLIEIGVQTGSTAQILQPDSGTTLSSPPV

IC50 (KDR kinase)	IC50 (C-Kit)	melting point	Compound
40 nM			Cc1cc2cn[nH]c2cc1NC(=O)c1ccccc1NCc1ccncc1 [Example 9]
	> 10000 nM	68 °C	O=C(Nc1cc(C(F)(F)F)ccc1C(F)(F)F)c1ccccc1NCc1ccncc1 [Example 17]
200 nM	> 10000 nM	198 to 200 °C	O=C(Nc1cc2cc(Br)ccc2oc1=O)c1ccccc1NCc1ccncc1 [Example 7]
3 nM	6000 nM		O=C(Nc1cc2ccccc2oc1=O)c1ccccc1NCc1ccncc1 [Example 1, N-[2-Oxo-2H-1-benzopyran-3-yl-]-2-[(4-pyridyl)methyl]amino-benzoic acid amide]
1000 nM	> 10000 nM	224.2 °C	Cc1cc2[nH]ncc2cc1NC(=O)c1ccccc1NCc1ccncc1 [Example 11]
10 nM	> 10000 nM	236.7 °C	O=C(Nc1cc2[nH]ncc2cc1Cl)c1ccccc1NCc1ccncc1 [Example 10]
1 nM	2000 nM	135.8 °C	O=C(Nc1ncc2ccccc2c1Br)c1ccccc1NCc1ccncc1 [Example 26]
50 nM	500 nM	172 °C	Cc1cc2cc(Cl)ccc2nc1NC(=O)c1ccccc1NCc1ccc(O)nc1 [Example 28]
2 nM	2000 nM		O=C(Nc1cc(C(F)(F)F)ccc1F)c1ccccc1NCc1ccncc1 [Example 15]
50 nM	5000 nM	135 °C	COc1ccc(C(F)(F)F)cc1NC(=O)c1ccccc1NCc1ccncc1 [Example 13]
30 nM	8000 nM	191.2 °C	Cc1cc2oc(=O)ccc2cc1NC(=O)c1ccccc1NCc1ccncc1 [Example 3]
200 nM	> 10000 nM		O=C(Nc1cc2cn[nH]c2cc1Cl)c1ccccc1NCc1ccncc1 [Example 2, N-(6-Chloroindazol-5-yl)-2-[(4-pyridyl)methyl]amino-benzoic acid amide]
200 nM		182 to 184 °C	O=C(Nc1cc2cc(Cl)ccc2oc1=O)c1ccccc1NCc1ccncc1 [Example 6]
10 nM	> 10000 nM	171 to 172 °C	COc1ccc2cc(NC(=O)c3ccccc3NCc3ccncc3)c(=O)oc2c1 [Example 5]
1 nM	5000 nM	105 °C	O=C(Nc1cc(C(F)(F)F)ccc1Cl)c1ccccc1NCc1ccncc1 [Example 14]
